Structures can show the parent of a compound that is named as a salt.

For `O=C(Nc1c(OCc2ccccc2)cccc1C(=O)O)c1cc(Cl)cc(Cl)c1` [Example 382, 2-[(3,5-Dichlorobenzoyl)amino]-3-(phenylmethoxy)benzoic acid], the melting point (as a rule, the temperature, or range, at which the solid turns liquid) lay in the range of 202 to 204 °C. Then `O=C(O)Cc1cccc(OCc2ccccc2Cl)c1OCc1ccccc1Cl` [Example 5, 2,3-Bis[(2-chlorophenyl)methoxy]benzeneacetic acid], with 105 to 107 °C; and `O=C(O)c1cccc(COc2ccccc2Cl)c1OCc1ccccc1Cl` [Example 10, 3-[(2-Chlorophenoxy)methyl]-2-[(2-chlorophenyl)methoxy]benzoic acid], with 172 to 174 °C; and `O=C(Nc1c(OCc2ccccc2)cccc1C(=O)O)c1ccccc1` [Example 375, 2-(Benzoylamino)-3-(phenylmethoxy)benzoic acid], with 167 to 168 °C.

Molecule `O=C(O)c1cccc(OCc2cc(C(F)(F)F)cc(C(F)(F)F)c2)c1OCc1cc(C(F)(F)F)cc(C(F)(F)F)c1` [Example 350, 2,3-Bis[[3,5-bis(trifluoromethyl)phenyl]methoxy]benzoic acid] gave a melting point of 156 to 158 °C. Next, `O=C(O)C(F)(F)c1cccc(OCc2ccccc2Cl)c1OCc1ccccc1Cl` [Example 27, 2,3-Bis[(2-chlorophenyl)methoxy]-α,α-difluorobenzeneacetic acid]: 113 to 115 °C; `Cc1ccc(C)c(COc2cccc(C(=O)O)c2OCc2cc(C)ccc2C)c1` [Example 351, 2,3-Bis[(2,5-dimethylphenyl)methoxy]benzoic acid]: 114 to 116 °C. Next, `O=C(Nc1c(OCc2c(Cl)cccc2Cl)cccc1C(=O)O)c1ccccc1` [Example 383]: 145 to 147 °C; `O=C(O)c1cccc(OCc2ccccc2Cl)c1OCc1ccc[n+]([O-])c1`: 177 to 179 °C. Then `CO/N=C(/C(=O)O)c1cccc(OCc2ccccc2Cl)c1OCc1ccccc1Cl` (single isomer, unassigned) [Example 341, (E or Z)-2,3-Bis[(2-chlorophenyl)methoxy]-α-(methoxyimino)benzeneacetic acid], with 97 to 99 °C; and `O=C(O)c1cc(Br)cc(OCc2ccccc2)c1OCc1ccccc1` [Example 356, 5-Bromo-2,3-bis(phenylmethoxy)benzoic acid], with 151 to 153 °C. With `O=C(O)c1cccc(OCc2ccccc2Cl)c1OCc1cccc(F)c1` [Example 358, 3-[(2-Chlorophenyl)methoxy]-2-[(3-fluorophenyl)methoxy]benzoic acid], the melting point lay in the range of 152 to 154 °C. The molecule `O=C(O)c1c(Br)ccc(OCc2ccccc2Cl)c1OCc1ccccc1Cl` [Example 373, 6-Bromo-2,3-bis[(2-chlorophenyl)methoxy]benzoic acid] registered a melting point of 156 to 158 °C. As for `O=C(O)c1cccc(OCc2ccccc2Cl)c1OCc1cccnc1` [Example 365], the melting point is 181 to 182 °C. Next, `O=C(O)c1cccc(OCc2ccccc2Cl)c1OCc1cccc(C(F)(F)F)c1` [Example 359]: 128 to 129 °C; `O=C(Nc1c(OCc2ccc(Cl)cc2Cl)cccc1C(=O)O)c1ccccc1` [Example 387, 2-(Benzoylamino)-3-[(2,4-dichlorophenyl)methoxy]benzoic acid]: 182 to 184 °C; `O=C(O)c1cccc(OCc2ccccc2Cl)c1OCc1ccccn1` [Example 363]: 168 to 170 °C. Next, `CO/N=C(/C(=O)O)c1cccc(OCc2ccccc2Cl)c1OCc1ccccc1Cl` (single isomer, unassigned) [Example 340, (E or Z)-2,3-Bis[(2-chlorophenyl)methoxy]-α-(methoxyimino)benzeneacetic acid]: 140 to 141 °C; `O=C(O)C(Cc1cccc(OCc2ccccc2Cl)c1OCc1ccccc1Cl)C(=O)O` [Example 7, [[2,3-Bis[(2-chlorophenyl)methoxy]phenyl]methyl]propanedioic acid]: 148 to 150 °C (dec.); `O=C(O)c1cccc(OCc2ccccc2Cl)c1OCc1cccnc1Cl` [Example 366, 3-[(2-Chlorophenyl)methoxy]-2-[(2-chloro-3-pyridinyl)methoxy)benzoic acid]: 183 to 184 °C. Then `O=C(O)c1cccc(OCc2ccccc2Cl)c1OCc1cc[n+]([O-])cc1` [Example 369, 3-[(2-Chlorophenyl)methoxy]-2-[(1-oxido-4-pyridinyl)methoxy]benzoic acid], with 186 to 188 °C; and `O=C(O)c1c(Br)ccc(OCc2ccccc2)c1OCc1ccccc1` [Example 374, 6-Bromo-2,3-bis(phenylmethoxy)benzoic acid], with 164 to 166 °C; and `Cn1c(COc2c(OCc3ccccc3Cl)cccc2C(=O)O)nc2ccccc21` [Example 372], with 179 to 182 °C.

With `O=C(O)c1cccc(OCc2ccccc2Cl)c1OCc1nc2ccccc2[nH]1` (as salt: hydrochloride) [Example 371, 2-(1H-Benzimidazol-2-ylmethoxy)-3-[(2-chlorophenyl)methoxyl]benzoic acid, monohydrochloride], the melting point is 197 to 201 °C.

Molecule `O=C(O)c1cccc(OCc2ccccc2Cl)c1OCc1cccc[n+]1[O-]` [Example 367, 3-[(2-Chlorophenyl)methoxy]-2-[(1-oxido-2-pyridinyl)methoxy]benzoic acid] gave a melting point of 189 to 191 °C. As for `O=C(O)C(F)c1cccc(OCc2ccccc2Cl)c1OCc1ccccc1Cl` (stereo not drawn) [Example 24, 2,3-Bis[(2-chlorophenyl)methoxy]-α-fluorobenzeneacetic acid], the melting point is 92 to 94 °C. With `O=C(O)c1cccc(COc2ccccc2Cl)c1COc1ccccc1Cl` [Example 9, 2,3-Bis[(2-chlorophenoxy)methyl]benzoic acid], the melting point lay within 172 to 174 °C.

Regarding `O=C(O)c1cccc(OCc2cc(Cl)cc(Cl)c2)c1OCc1cc(Cl)cc(Cl)c1` [Example 345, 2,3-Bis[(3,5-dichlorophenyl)methoxy]benzoic acid], the melting point lay within 219 to 220 °C.

As for `O=C(O)c1cccc(OCc2ccccc2)c1OCc1ccc(Cl)cc1Cl` [Example 353, 2-[(2,4-Dichlorophenyl)methoxy]-3-(phenylmethoxy)benzoic acid], the melting point fell in the range of 140 to 142 °C. `O=C(O)c1cccc(OCc2ccc(Cl)cc2Cl)c1OCc1ccccc1` [Example 354, 3-[(2,4-Dichlorophenyl)methoxy]-2-(phenylmethoxy)benzoic acid] displayed a melting point of 151 to 153 °C.

In turn, `O=C(O)c1cccc(OCc2ccc(Cl)cc2)c1OCc1ccc(Cl)cc1` [Example 349, 2,3-Bis[(4-chlorophenyl)methoxy]benzoic acid] gave a melting point of 174 to 175 °C. `O=C(O)/C=C/c1cccc(OCc2ccccc2Cl)c1OCc1ccccc1Cl` [Example 4, 2-(E)-3-[2,3-Bis[(2-chlorophenyl)methoxy]phenyl]-2-propenoic acid] registered a melting point of 187 to 189 °C. Regarding `O=C(O)c1cccc(OCc2cccc(Cl)c2)c1OCc1cccc(Cl)c1` [Example 348, 2,3-Bis[(3-chlorophenyl)methoxy]benzoic acid], the melting point was 126 to 127 °C. In turn, `O=C(O)c1cccc(OCc2ccccc2Cl)c1OCc1ccc[n+]([O-])c1Cl` [Example 370, 3-[(2-Chlorophenyl)methoxy]-2-[(2-chloro-1-oxido-3-pyridinyl)methoxy]benzoic acid] registered a melting point of 145 to 148 °C. Then `O=C(Nc1c(OCc2ccccc2)cccc1C(=O)O)c1ccc(Cl)cc1Cl` [Example 381, 2-[(2,4-Dichlorobenzoyl)amino]-3-(phenylmethoxy)benzoic acid], with 208 to 210 °C. Then `O=C(O)c1cccc(OCc2ccc(Cl)cc2Cl)c1OCc1ccc(Cl)cc1Cl` [Example 346, 2,3-Bis[(2,4-dichlorophenyl)methoxy]benzoic acid], with 168 to 169 °C; and `Cc1cccc(COc2c(OCc3ccccc3Cl)cccc2C(=O)O)c1` [Example 357, 3-[(2-Chlorophenyl)methoxy]-2-[(3-methylphenyl)methoxy]benzoic acid], with 107 to 109 °C; and `O=C(Nc1c(OCc2cc(Cl)ccc2Cl)cccc1C(=O)O)c1ccccc1` [Example 384], with 187 to 189 °C.

With `O=C(O)c1cccc(OCc2ccccc2Cl)c1OCc1ccncc1` [Example 364], the melting point is 157 to 159 °C. `Cc1cc(C)cc(COc2cccc(C(=O)O)c2OCc2cc(C)cc(C)c2)c1` [Example 352] showed a melting point of 117 to 118 °C. `O=C(O)C(=O)c1cccc(OCc2ccccc2Cl)c1OCc1ccccc1Cl` [Example 26, 2,3-Bis[(2-chlorophenyl)methoxy]-α-oxobenzeneacetic acid] had a melting point of 116 to 118 °C. Next, `Cc1cc(C)cc(COc2c(OCc3ccccc3Cl)cccc2C(=O)O)c1` [Example 361, 3-[(2-Chlorophenyl)methoxy]-2-[(3,5-dimethylphenyl)methoxy]benzoic acid]: 122 to 123 °C; `O=C(O)c1cccc(OCc2ccccc2Cl)c1OCc1ccc(OCc2ccccc2)cc1` [Example 360, 3-[(2-Chlorophenyl)methoxy]-2-[[4-(phenylmethoxy)phenyl]methoxy]benzoic acid]: 107 to 109 °C.

`O=C(Nc1cccc(C(=O)O)c1OCc1ccccc1Cl)c1ccccc1Cl` [Example 392, 3-[(2-Chlorobenzoyl)amino]-2-[(2-chlorophenyl)methoxy]benzoic acid] returned a melting point of 182 to 183 °C. Then `O=C(O)c1cc(Br)cc(OCc2ccccc2Cl)c1OCc1ccccc1Cl` [Example 355, 5-Bromo-2,3-bis[(2-chlorophenyl)methoxy]benzoic acid], with 186 to 187 °C. Next, `COc1ccccc1COc1c(OCc2ccccc2Cl)cccc1C(=O)O` [Example 362, 3-[(2-Chlorophenyl)methoxy]-2-[(2-methoxyphenyl)methoxy]benzoic acid]: 110 to 112 °C.

As to `O=C(O)c1cccc(OCc2ccccc2Cl)c1OCc1ccccc1Cl` [Example 347, 2,3-Bis[(2-chlorophenyl)methoxy]benzoic acid], the melting point fell in the range of 156 to 157 °C.
